Measurements from ChEMBL document CHEMBL1287749, “Acetazolamide-based fungal chitinase inhibitors” (Bioorg Med Chem, 2010).
Active and inactive are the calls of the source. The rule behind the calls is not given here.

Target: T1, Endochitinase A1 (Aspergillus fumigatus) (UniProt Q873Y0)
T1 sequence (whole entry): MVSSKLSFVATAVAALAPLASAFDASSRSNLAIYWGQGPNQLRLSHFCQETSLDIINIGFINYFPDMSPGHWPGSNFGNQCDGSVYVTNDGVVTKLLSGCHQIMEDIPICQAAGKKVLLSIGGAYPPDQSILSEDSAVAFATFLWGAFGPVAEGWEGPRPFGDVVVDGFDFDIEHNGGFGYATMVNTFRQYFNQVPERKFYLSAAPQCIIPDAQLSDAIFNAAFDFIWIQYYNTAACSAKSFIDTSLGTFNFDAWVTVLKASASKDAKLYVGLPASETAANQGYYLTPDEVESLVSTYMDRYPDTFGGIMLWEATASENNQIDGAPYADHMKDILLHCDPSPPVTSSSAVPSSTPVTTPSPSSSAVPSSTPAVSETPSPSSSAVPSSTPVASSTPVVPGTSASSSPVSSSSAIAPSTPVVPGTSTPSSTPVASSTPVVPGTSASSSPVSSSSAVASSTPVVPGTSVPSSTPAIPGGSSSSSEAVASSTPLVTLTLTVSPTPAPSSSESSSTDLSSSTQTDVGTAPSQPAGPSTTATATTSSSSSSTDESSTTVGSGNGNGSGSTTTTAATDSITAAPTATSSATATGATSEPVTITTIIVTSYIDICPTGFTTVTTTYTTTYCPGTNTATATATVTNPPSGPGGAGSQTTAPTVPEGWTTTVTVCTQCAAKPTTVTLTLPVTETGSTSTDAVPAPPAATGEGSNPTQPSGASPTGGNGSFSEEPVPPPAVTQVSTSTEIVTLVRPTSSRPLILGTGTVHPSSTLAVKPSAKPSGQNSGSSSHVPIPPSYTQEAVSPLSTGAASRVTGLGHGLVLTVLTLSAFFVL
Settings: 1 mM

- inhibition: inactive
SMILES: Nc1nnc(S(N)(=O)=O)s1
